Key:
[1] = test system: HMPV A2 TN/94-49; assay: HMPV antiviral assay: LLC-MK2 cells, ATP-Lite readout; type: cell-based; conditions: MOI 0.005, 7 days incubation
Outline: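 LLC-MK2 cells (5,000/well) were infected in suspension with HMPV A2 TN/94-49 at MOI 0.005 in serum-free OptiMEM with 2 μg/mL final TPCK-trypsin, then incubated for 7 days at 37 °C. Compounds were tested in duplicate from 2 μM in 10-point 2.5-fold dilutions. ATP-Lite luminescence, normalised to virus-only and cells-only controls as % cell health, gave EC50 by four-parameter fit.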

[2] = test system: Human RSV-A (“Long” strain); assay: RSV-A assay: CPE in Hep-2 cells, ATPlite readout; type: cell-based; conditions: MOI 0.1, 5-day incubation
From the text: Hep-2 cells, (originally derived from tumors grown in irradiated-cortisonised weanling rats that had been injected with epidermoid carcinoma tissue from a person's larynx, but later found to be indistinguishable from HeLa cells by PCR DNA analysis), were used for the culturing of genotype A, “Long” strain RSV. Flasks were inoculated with RSV and viral stocks were collected once cytopathic effect (CPE) was greater than 90%. Viral stocks in 25% sucrose media were snap frozen using liquid nitrogen to increase viral stability. Viral stock titers were quantified by tissue culture infectious dose 50% (TCID50) using 8,000 cells per well and 3-fold viral dilutions across a 96-well plate, cultured for 4 days. Viral stock titers were also quantified by a plaque forming unit assay, as described elsewhere.
Following extensive parameter testing, the final assay is run as follows: Hep-2 cells are seeded into the inner 60 wells of a 96-well plate at 8,000 cells per well in a volume of 50 μL using Growth Media (DMEM without phenol red, 1% L-Glut, 1% Penn/Strep, 1% nonessential amino acids, 10% heat-inactivated FBS). 2-fold serial dilutions of control and test compounds are added to the wells in duplicate in a total volume of 25 μL. Viral stock is then added to the wells at a multiplicity of infection (MOI) of 0.1 in a volume of 25 μL, bringing the total volume of each well to 100 μL. The MOI is calculated using the PFU/mL, or TCID50 if unavailable. Each 96-well plate has a control column of 6 wells with cells and virus but no compound (negative control, max CPE), a column with cells but no compound or virus (positive control, minimum CPE), and a column with no cells or virus or compound (background plate/reagent control). The control wells with cells but no virus are given an additional 25 μL of growth media containing an equal quantity of sucrose as those wells receiving the viral stock in order to keep consistent in media and volume conditions. The outer wells of the plate are filled with 125 μL of moat media (DMEM, 100 Penn/Strep) to act as a thermal and evaporative moat around the test wells. Following a 5-day incubation period, the plates are read using ATPlite (50 uL added per well), which quantifies the amount of ATP (a measure of cell health) present in each well. Assay plates are read using the Envision luminometer. […] EC50 ranges are as follows: A<0.01 μM; B 0.01-0.05 μM; C>0.05 μM.

[3] = test system: HRSV; conditions: prophylactic use, high risk infants; cited from earlier work
[4] = human respiratory syncytial virus, 120 h

Molecule | EC50 ([1]; LLC-MK2, 168 h) | EC50 [2, 4] | EC50 [1] | EC50 [2] | effective in reducing hospitalizations [3]
Cc1nc2c(OC(F)F)cc(C(=O)NC[C@](O)(c3cc(C(C)(C)O)c(F)c(-c4cc(Cl)c(F)cc4F)n3)C3CC3)cc2cc1Br [Example 59] | > 1 µM | < 0.01 µM |  |  | 
COc1cc(C(=O)NC[C@@](O)(c2ccccc2)c2cc(C(C)(C)O)c(F)c(-c3cccc(Cl)c3Cl)n2)cc2cn(C3CC3)nc12 [Example 79] | < 1 µM | < 0.01 µM |  |  | 
COc1cc(C(=O)NC[C@@](O)(c2ccccc2)c2cc(C(C)(C)O)c(F)c(-c3cc(F)c(F)cc3F)n2)cc2cn(C3CC3)nc12 [Example 86] | > 1 µM | < 0.01 µM |  |  | 
COc1cc(C(=O)NC[C@@](O)(c2ccccc2)c2cc(C(C)(C)O)c(F)c(-c3ccc(F)c(Cl)c3F)n2)cc2cn(C3CC3)nc12 [Example 123] | < 1 µM | < 0.01 µM |  |  | 
COc1cc(C(=O)NC[C@@](O)(c2ccccc2)c2nc(-c3cc(Cl)c(F)cc3F)c(F)c(C(C)(C)O)c2F)cc2cn(C3CC3)nc12 [Example 127] | < 1 µM | < 0.01 µM |  |  | 
COc1cc(C(=O)NC[C@@](O)(c2ccccc2)c2cc(C(C)(C)O)c(Cl)c(-c3ccc4c(c3Cl)OC(F)(F)O4)n2)cc2cn(C3CC3)nc12 [Example 136] | < 1 µM | < 0.01 µM |  |  | 
COc1cc(C(=O)NC[C@@](O)(c2ccccc2)c2cc(C(C)(C)O)c(Cl)c(-c3cc(Cl)c(F)cc3F)n2)cc2cn(C3CC3)nc12 [Example 144] |  |  | < 1 µM | < 0.01 µM | 
COc1c(C(C)(C)O)cc([C@@](O)(CNC(=O)c2cc(OC)c3nn(C4CC4)cc3c2)C2CC2)nc1-c1cc(Cl)c(F)cc1F [Example 164] | > 1 µM | > 0.05 µM |  |  | 
COc1cc(C(=O)NC[C@](O)(c2cc(C3(O)CNC3)c(F)c(-c3cc(Cl)c(F)cc3F)n2)C2CC2)cc2cn(C3CC3)nc12 [Example 170] | > 1 µM | > 0.05 µM |  |  | 
COc1cc(C(=O)NC[C@](O)(c2cc(C(C)(C)F)c(F)c(-c3cc(Cl)c(F)cc3F)n2)C2CC2)cc2cn(C3CC3)nc12 [Example 177] | > 1 µM | 0.01 to 0.05 µM |  |  | 
[2H]C([2H])([2H])C(O)(c1cc([C@@](O)(CNC(=O)c2cc(OC)c3nn(C4CC4)cc3c2)c2ccccc2)nc(-c2cc(Cl)c(F)cc2F)c1F)C([2H])([2H])[2H] [Example 183] | < 1 µM | < 0.01 µM |  |  | 
[2H]C([2H])([2H])C(O)(c1cc([C@@](O)(CNC(=O)c2cc(OC)n3nc(C4CC4)cc3c2)c2ccccc2)nc(-c2cc(Cl)c(F)cc2F)c1F)C([2H])([2H])[2H] [Example 184] | < 1 µM | < 0.01 µM |  |  | 
[2H]C([2H])([2H])C(O)(c1cc([C@@](O)(CNC(=O)c2cc(OC)c3nn(C(F)F)cc3c2)c2ccccc2)nc(-c2cc(Cl)c(F)cc2F)c1F)C([2H])([2H])[2H] [Example 185] | < 1 µM | < 0.01 µM |  |  | 
COc1cc(C(=O)NC[C@@](O)(c2ccccc2)c2cc(C(N)=O)c(F)c(-c3cc(Cl)c(F)cc3F)n2)cc2cn(C3CC3)nc12 [Example 189] | > 1 µM | 0.01 to 0.05 µM |  |  | 
COc1cc(C(=O)NC[C@@](O)(c2ccccc2)c2cc(C(=O)NC3(C)CC3)c(F)c(-c3cc(Cl)c(F)cc3F)n2)cc2cn(C3CC3)nc12 [Example 195] | > 1 µM | > 0.05 µM |  |  | 
COc1cc(C(=O)NC[C@](O)(c2cc(N3CC[C@H](O)C3)cc(-c3cc(Cl)c(F)cc3F)n2)C2CC2)cc2cn(C3CC3)nc12 [Example 199] | > 1 µM | > 0.05 µM |  |  | 
COc1cc(C(=O)NC[C@](O)(c2cc(N3CC[C@@H](O)C3)cc(-c3cc(Cl)c(F)cc3F)n2)C2CC2)cc2cn(C3CC3)nc12 [Example 200] | > 1 µM | > 0.05 µM |  |  | 
Palivizumab |  |  |  |  | 60%

Second part, led by results:

EC50 ([1]; LLC-MK2, 168 h) | EC50 [2, 4] | EC50 [1] | EC50 [2] | Molecule | effective in reducing hospitalizations [3]
< 1 µM | < 0.01 µM |  |  | COc1cc(C(=O)NC[C@](O)(c2cc(C(C)(C)O)c(F)c(-c3cc(Cl)c(F)cc3F)n2)C2CC2)cc2cn(C3CC3)nc12 [Example 52] | 
< 1 µM | < 0.01 µM |  |  | COc1cc(C(=O)NC[C@](O)(c2cc(C(C)(C)O)c(F)c(-c3cc(Cl)c(F)cc3F)n2)C2CC2)cc2cc(Cl)c(C)nc12 [Example 57] | 
< 1 µM | < 0.01 µM |  |  | COc1cc(C(=O)NC[C@@](O)(c2ccccc2)c2cc(C(C)(C)O)c(F)c(-c3cc(Cl)c(F)cc3F)n2)cc2cn(C(F)F)nc12 [Example 62] | 
< 1 µM | < 0.01 µM |  |  | COc1cc(C(=O)NC[C@@](O)(c2ccccc2)c2cc(C(C)(C)O)c(F)c(-c3cc(Cl)c(F)cc3F)n2)cc2cc(C3CC3)nn12 [Example 64] | 
< 1 µM | 0.01 to 0.05 µM |  |  | COc1cc(C(=O)NC[C@@](O)(c2ccccc2)c2cc(C(C)(C)O)c(F)c(-c3cc(Cl)c(F)cc3F)n2)cc2cc(Cl)c(C)nc12 [Example 65] | 
< 1 µM | > 0.05 µM |  |  | Cc1nc2c(OC(F)F)cc(C(=O)NC[C@@](O)(c3ccccc3)c3cc(C(C)(C)O)c(F)c(-c4cc(Cl)c(F)cc4F)n3)cc2cc1Br [Example 66] | 
< 1 µM | < 0.01 µM |  |  | COc1cc(C(=O)NC[C@@](O)(c2ccccc2)c2cc(C(C)(C)O)c(F)c(-c3ccc(F)c(Cl)c3Cl)n2)cc2cn(C3CC3)nc12 [Example 67] | 
< 1 µM | < 0.01 µM |  |  | COc1cc(C(=O)NC[C@@](O)(c2ccccc2)c2cc(C(C)(C)O)c(F)c(-c3ccc4c(c3Cl)OC(F)(F)O4)n2)cc2cn(C3CC3)nc12 [Example 74] | 

— US12162857B2, “Antiviral compounds” (priority 2022, dated 2024)
